Experimental data as given in US20230263822A1, “MODULATION OF FACTOR 11 EXPRESSION” (Ionis Pharmaceuticals, Inc., priority 2008, published 2023).

How the values were obtained:
human Factor 11 mRNA [1] = test: Antisense inhibition of human Factor 11 in HepG2 cells by microwalk gapmers, lipofectin, 75 nM (Example 3); type: cell-based
Method in brief: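 HepG2 cells (10,000/well) were transfected via lipofectin with 75 nM 20-mer MOE gapmers (phosphorothioate, 5-methyl-C) for about 24 h. Factor 11 mRNA was measured by qRT-PCR, normalized to RIBOGREEN total RNA, and given as percent inhibition versus untreated cells.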

human Factor 11 mRNA [2] = test: Dose-dependent inhibition of human Factor 11 in HepG2 cells, lipofectin 2.34-75 nM (Example 5); type: cell-based; settings: for percent inhibition of human Factor 11 mRNA relative to untreated control cells: ~16 hours
Experimental: (§1) Cells were plated at a density of 10,000 cells per well and transfected using lipofectin reagent with 2.34 nM, 4.69 nM, 9.375 nM, 18.75 nM, 37.5 nM, and 75 nM concentrations of antisense oligonucleotide, as specified in Table 11. After a treatment period of approximately 16 hours, RNA was isolated from the cells and human Factor 11 mRNA levels were measured by quantitative real-time PCR. Human Factor 11 primer probe set RTS 2966 was used to measure mRNA levels. Factor 11 mRNA levels were adjusted according to total RNA content, as measured by RIBOGREEN. Results are presented as percent inhibition of human Factor 11, relative to untreated control cells.

[3] = design: species or system Sprague-Dawley rats; settings: rat, in vivo
Experimental: Three days after the last dose, the rats were sacrificed and livers and kidneys were collected for analysis.
The concentration of the full-length oligonucleotide as well as the total oligonucleotide concentration (including the degraded form) was measured. The method used is a modification of previously published methods (Leeds et al., 1996; Geary et al., 1999) which consist of a phenol-chloroform (liquid-liquid) extraction followed by a solid phase extraction. An internal standard (ISIS 355868, a 27-mer 2′-O-methoxyethyl modified phosphorothioate oligonucleotide, […], designated herein as SEQ ID NO: 270) was added prior to extraction. […] The results are presented in Tables 77 and 78, expressed as μg/g liver or kidney tissue. Half-lives were then calculated using WinNonlin software ([…]).

human Factor 11 mRNA [4] = test: Dose-dependent inhibition of human Factor 11 in HepB3 cells, lipofectin (Example 7); type: cell-based; settings: for percent inhibition of Factor 11 mRNA relative to untreated control cells: ~16 hours
Experimental: as §1, with “4,000” for “10,000”, “2.3” for “2.34”, “4.7” for “4.69”, “9.4” for “9.375”, “14.” for “11.”, “of” for “of human”

[5] = HepG2 cells, lipofectin, gapmers targeted to nucleobases 1275 to 1318 of SEQ ID NO: 1

Substance	% inhibition (human Factor 11 mRNA [1]; [5]) [%]	IC50 (human Factor 11 mRNA [2]) [nM]	percent inhibition of human Factor 11 mRNA relative to untreated control cells (human Factor 11 mRNA [2]; 2.34 nM) [%]	percent inhibition of human Factor 11 mRNA relative to untreated control cells (human Factor 11 mRNA [2]; 4.69 nM) [%]	percent inhibition of human Factor 11 mRNA relative to untreated control cells (human Factor 11 mRNA [2]; 9.375 nM) [%]	percent inhibition of human Factor 11 mRNA relative to untreated control cells (human Factor 11 mRNA [2]; 18.75 nM) [%]	percent inhibition of human Factor 11 mRNA relative to untreated control cells (human Factor 11 mRNA [2]; 37.5 nM) [%]	percent inhibition of human Factor 11 mRNA relative to untreated control cells (human Factor 11 mRNA [2]; 75 nM) [%]	Half-life in the liver and kidney [3] [days]	IC50 (human Factor 11 mRNA [4]) [nM]	percent inhibition of Factor 11 mRNA relative to untreated control cells (human Factor 11 mRNA [4]; 2.3 nM) [%]	percent inhibition of Factor 11 mRNA relative to untreated control cells (human Factor 11 mRNA [4]; 4.7 nM) [%]	percent inhibition of Factor 11 mRNA relative to untreated control cells (human Factor 11 mRNA [4]; 9.4 nM) [%]	percent inhibition of Factor 11 mRNA relative to untreated control cells (human Factor 11 mRNA [4]; 18.75 nM) [%]	percent inhibition of Factor 11 mRNA relative to untreated control cells (human Factor 11 mRNA [4]; 37.5 nM) [%]	percent inhibition of Factor 11 mRNA relative to untreated control cells (human Factor 11 mRNA [4]; 75 nM) [%]	% inhibition (human Factor 11 mRNA [1]; HepG2 cells, lipofectin, gapmers targeted to nucleobases 1018 to 1042 of SEQ ID NO: 1) [%]	% inhibition (human Factor 11 mRNA [1]; HepG2, lipofectin, ~24 h, gapmers targeted to nucleobases 656 to 704 of SEQ ID NO: 1) [%]
416999 (antisense GCACAGTTTCTGGCAGGCCT; 2-13-5 gapmer chemistry, further chemistry not given here) [compound 416999]	92	14	10	26	42	62	72	80	9	12	19	33	42	60	71	59		
416838 (antisense GCAACCGGGATGATGAGTGC; 5-10-5 gapmer, further chemistry not given here) [compound 416838]		10	21	37	50	63	74	83	13	11	23	34	43	59	71	56	94	
417002 (antisense GGTGCACAGTTTCTGGCAGG; 2-13-5 gapmer chemistry, further chemistry not given here) [compound 417002]	92	12	17	26	49	61	81	84	11	13	24	30	46	57	71	65		
416892 (antisense GCCCTTCATGTCTAGGTCCA; 3-14-3 chimeric gapmer, further chemistry not given here) [compound 416892]		9	14	34	49	70	84	93	12	9	28	34	50	68	82	72		100
